The target of this assay is T1, TNIK (Homo sapiens, UniProt Q9UKE5).
T1 construct: purchased Thermo Fisher Scientific (Life Technologies) SelectScreen
Nature of the assay: SelectScreen LanthaScreen. Format: binding. The conditions noted are these: read-out: % displacement. An outline of the steps:
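NU5455 was profiled across the SelectScreen Broad panel of kinase activity and binding assays. Z'LYTE reactions such as CSF1R ran at apparent Km ATP, while the Adapta CAMK1 assay used ATP listed as 10. Values are given as percent.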

We go through 1 compound from article PMC6934184, “Selective DNA-PKcs inhibition extends the therapeutic index of localized radiotherapy and chemotherapy” (The Journal of Clinical Investigation, 2019).

T1 sequence (Q9UKE5 whole entry): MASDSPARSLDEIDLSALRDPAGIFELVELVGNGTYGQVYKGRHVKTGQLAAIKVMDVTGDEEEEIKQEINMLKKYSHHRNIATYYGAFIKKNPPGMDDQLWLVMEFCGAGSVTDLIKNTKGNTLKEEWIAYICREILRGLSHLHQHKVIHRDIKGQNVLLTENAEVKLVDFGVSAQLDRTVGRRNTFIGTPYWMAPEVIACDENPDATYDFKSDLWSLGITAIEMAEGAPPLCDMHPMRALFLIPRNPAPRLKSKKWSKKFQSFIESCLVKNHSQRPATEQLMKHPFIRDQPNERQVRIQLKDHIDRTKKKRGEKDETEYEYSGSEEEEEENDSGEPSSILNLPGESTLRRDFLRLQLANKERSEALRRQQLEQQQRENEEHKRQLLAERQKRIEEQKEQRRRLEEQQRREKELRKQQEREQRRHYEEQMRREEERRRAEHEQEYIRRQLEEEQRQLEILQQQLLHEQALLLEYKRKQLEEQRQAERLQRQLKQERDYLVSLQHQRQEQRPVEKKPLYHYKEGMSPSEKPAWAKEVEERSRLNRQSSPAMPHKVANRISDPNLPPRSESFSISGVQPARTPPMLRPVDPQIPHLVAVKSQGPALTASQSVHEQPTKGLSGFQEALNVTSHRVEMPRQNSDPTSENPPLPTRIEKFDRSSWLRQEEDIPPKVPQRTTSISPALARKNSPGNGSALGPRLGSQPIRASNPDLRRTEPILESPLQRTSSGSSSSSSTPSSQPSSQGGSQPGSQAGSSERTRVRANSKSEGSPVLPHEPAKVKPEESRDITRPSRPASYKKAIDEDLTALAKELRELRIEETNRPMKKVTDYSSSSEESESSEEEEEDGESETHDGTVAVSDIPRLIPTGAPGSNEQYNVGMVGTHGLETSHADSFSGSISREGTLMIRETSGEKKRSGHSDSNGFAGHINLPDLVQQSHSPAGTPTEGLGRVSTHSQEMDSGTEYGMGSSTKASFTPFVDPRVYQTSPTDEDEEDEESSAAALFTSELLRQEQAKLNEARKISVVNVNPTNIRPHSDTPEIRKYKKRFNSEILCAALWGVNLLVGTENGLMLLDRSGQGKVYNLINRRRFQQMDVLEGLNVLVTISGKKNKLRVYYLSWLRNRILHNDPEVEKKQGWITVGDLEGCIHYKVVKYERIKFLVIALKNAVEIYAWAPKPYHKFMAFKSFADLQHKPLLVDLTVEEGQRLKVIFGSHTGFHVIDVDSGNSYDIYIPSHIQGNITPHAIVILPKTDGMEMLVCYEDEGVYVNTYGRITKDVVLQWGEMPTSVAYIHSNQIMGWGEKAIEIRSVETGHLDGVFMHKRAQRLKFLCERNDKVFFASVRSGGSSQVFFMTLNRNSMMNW

Consider `CN(C(=O)CN1CCOCC1)c1ccc2sc3c(-c4cccc5c(=O)cc(N6CC7CCC(C6)O7)oc45)cccc3c2c1` [NU5455], for which the inhibition at 1 µM was 7.3%.
